Where a name gives a salt, the structure may show the parent alone.
Tests used:
HSD17B13 enzyme = HSD17B13 enzyme (Homo sapiens (Human), UniProt Q7Z5P4); experiment: hHSD17B13 IC50 Assay (FAC beta-estradiol), purified protein enzyme activity assay with NAD(P)H-Glo luciferase readout; assay type: biochemical; conditions: geometric mean, 12 μM FAC beta-estradiol, 500 μM NAD+, read-out: hHSD17B13_IC50 GMean IC50
Summary of the method: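 Purified human HSD17B13 (30 nM FAC) incubated with compound, beta-estradiol and NAD+ for 2 h at room temperature in the dark. NADH formation was detected by NAD(P)H-Glo luminescence after 1 h. RLUs normalized to uninhibited enzyme (vehicle) as zero effect.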

wild type human HSD17B13 = wild type human HSD17B13 (Homo sapiens (Human), UniProt Q7Z5P4); experiment: HEK_Beta-Est LCMS_IC50_Tekcel, whole-cell HEK-HSD17B13 inhibition assay, estrone production by LCMS; assay type: cell-based; conditions: geometric mean, HEK cells stably expressing wild type human HSD17B13, 25 μM FAC beta-estradiol, read-out: HEK_Beta-Est LCMS_IC50—Tekcel GMean IC50
Summary of the method: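 Readout was LCMS quantitation of estrone made from beta-estradiol with NAD+ as cofactor. Whole HEK-HSD17B13 cells were given compound for 1 hour, then the reaction for 2 hours, both at 37° C. Product area ratios were normalized to vehicle controls as zero percent effect.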

Sequence of HSD17B13 enzyme (Q7Z5P4 20-300): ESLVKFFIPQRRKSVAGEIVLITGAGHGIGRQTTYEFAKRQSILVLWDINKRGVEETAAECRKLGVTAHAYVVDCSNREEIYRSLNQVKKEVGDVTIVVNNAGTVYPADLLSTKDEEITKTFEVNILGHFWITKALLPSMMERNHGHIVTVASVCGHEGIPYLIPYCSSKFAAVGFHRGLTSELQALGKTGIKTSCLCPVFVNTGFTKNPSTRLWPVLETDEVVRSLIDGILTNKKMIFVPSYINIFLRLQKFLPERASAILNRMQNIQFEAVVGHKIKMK
Sequence of wild type human HSD17B13 (Q7Z5P4 20-300): as above

Row | Compound | IC50 (HSD17B13 enzyme) [nM] | IC50 (wild type human HSD17B13) [nM]
1 | O=C(NC[C@H]1CC[C@H](n2cc3cc(F)ccc3n2)CC1)c1cc(F)c(O)c(F)c1 [Example 133, 3,5-difluoro-N-{[(1r,4r)-4-(5-fluoro-2H-indazol-2-yl)cyclohexyl]methyl}-4-hydroxybenzamide, ammonium salt] | 29 | 280
2 | N#Cc1ccc2cn([C@H]3CC[C@H](CNC(=O)c4cc(F)c(O)c(F)c4)CC3)nc2c1 [Example 134, N-{[(1r,4r)-4-(6-cyano-2H-indazol-2-yl)cyclohexyl]methyl}-3,5-difluoro-4-hydroxybenzamide, ammonium salt] | 32 | 470
3 | O=C(NC[C@H]1CC[C@H](n2cc3ccc(Cl)cc3n2)CC1)c1cc(F)c(O)c(F)c1 [Example 135, N-{[(1r,4r)-4-(6-chloro-2H-indazol-2-yl)cyclohexyl]methyl}-3,5-difluoro-4-hydroxybenzamide, ammonium salt] | 21 | 250
4 | CN1CCN(c2ccc3cn([C@H]4CC[C@H](CNC(=O)c5cc(F)c(O)c(F)c5)CC4)nc3c2)CC1 [Example 136, 3,5-difluoro-4-hydroxy-N-({(1r,4r)-4-[6-(4-methyl-piperazin-1-yl)-2H-indazol-2-yl]cyclohexyl}methyl) benzamide, ammonium salt] | 15 | 300
5 | O=C(NC[C@H]1CC[C@H](n2cc3ccc(C(F)(F)F)cc3n2)CC1)c1cc(F)c(O)c(F)c1 [Example 137, 3,5-difluoro-4-hydroxy-N-({(1r,4r)-4-[6-(trifluoromethyl)-2H-indazol-2-yl]cyclohexyl}methyl) benzamide, ammonium salt] | 25 | 280
6 | O=C(NC[C@H]1CC[C@H](c2noc(-c3ccccc3)n2)CC1)c1cc(F)c(O)c(F)c1 [Example 138, 3,5-difluoro-4-hydroxy-N-{[(1r,4r)-4-(5-phenyl-1,2,4-oxadiazol-3-yl)cyclohexyl]methyl}benzamide] | 16 | 200
7 | O=C(NC[C@H]1CC[C@H](n2cc3ccc(Cl)cc3n2)CC1)c1cc(F)c(O)cc1F [Example 144, N-{[(1r,4r)-4-(6-chloro-2H-indazol-2-yl)cyclohexyl]methyl}-2,5-difluoro-4-hydroxybenzamide, trifluoroacetate salt] | 14 | 440
8 | O=C(NC[C@H]1CC[C@H](n2cc3cc(Cl)ccc3n2)CC1)c1cc(F)c(O)cc1F [Example 145, N-{[(1r,4r)-4-(5-chloro-2H-indazol-2-yl)cyclohexyl]methyl}-2,5-difluoro-4-hydroxybenzamide, trifluoroacetate salt] | 18 | 260
9 | CCn1cc(-c2ccc3cn([C@H]4CC[C@H](CNC(=O)c5cc(F)c(O)c(F)c5F)CC4)nc3c2)cn1 [Example 150, N-({(1r,4r)-4-[6-(1-ethyl-1H-pyrazol-4-yl)-2H-indazol-2-yl]cyclohexyl}methyl)-2,3,5-trifluoro-4-hydroxybenzamide, trifluoroacetate salt] | 4.8 | 120
10 | O=C(NC[C@H]1CC[C@H](c2noc(-c3cc4ccccn4n3)n2)CC1)c1cc(F)c(O)c(F)c1 [Example 176, 3,5-difluoro-4-hydroxy-N-({(1r,4r)-4-[5-(pyrazolo[1,5-a]pyridin-2-yl)-1,2,4-oxadiazol-3-yl]cyclohexyl}methyl) benzamide] | 11 | 190
11 | O=C(NC[C@H]1CC[C@H](n2cc3cc(C(F)(F)F)ccc3n2)CC1)c1cc(F)c(O)c(F)c1 [Example 181, 3,5-difluoro-4-hydroxy-N-({(1r,4r)-4-[5-(trifluoromethyl)-2H-indazol-2-yl]cyclohexyl}methyl) benzamide] | 16 | 230
12 | O=C(NC[C@H]1CC[C@H](n2cc3cc(C(F)(F)F)ccc3n2)CC1)c1cc(F)c(O)c(F)c1F [Example 182, 2,3,5-trifluoro-4-hydroxy-N-({(1r,4r)-4-[5-(trifluoromethyl)-2H-indazol-2-yl]cyclohexyl}methyl) benzamide] | 16 | 230

Continued, values first:

Row | IC50 (HSD17B13 enzyme) [nM] | IC50 (wild type human HSD17B13) [nM] | Compound
13 | 22 | 410 | O=C(NC[C@H]1CC[C@H](c2nc(-c3cnc(C(F)(F)F)cn3)no2)CC1)c1cc(F)c(O)c(F)c1 [Example 139, 3,5-difluoro-4-hydroxy-N-{[(1r,4r)-4-{3-[5-(trifluoromethyl)pyrazin-2-yl]-1,2,4-oxadiazol-5-yl}cyclohexyl]methyl} benzamide]
14 | 16 | 220 | O=C(NC[C@]12CC[C@](c3nc(-c4ccc(C(F)(F)F)nc4)no3)(CC1)CC2)c1cc(F)c(O)c(F)c1 [Example 140, 3,5-difluoro-4-hydroxy-N-[(4-{3-[6-(trifluoromethyl)pyridin-3-yl]-1,2,4-oxadiazol-5-yl}bicyclo[2.2.2]octan-1-yl)methyl] benzamide]
15 | 8.8 | 190 | O=C(NC[C@]12CC[C@](c3nc4ccccc4o3)(CC1)CC2)c1cc(F)c(O)c(F)c1 [Example 141, N-{[4-(1,3-benzoxazol-2-yl)bicyclo[2.2.2]octan-1-yl]methyl}-3,5-difluoro-4-hydroxybenzamide]
16 | 10 | 160 | O=C(NC[C@]12CC[C@](c3nc(-c4ccc(C(F)F)nc4)no3)(CC1)CC2)c1cc(F)c(O)c(F)c1 [Example 142, N-[(4-{3-[6-(difluoromethyl)pyridin-3-yl]-1,2,4-oxadiazol-5-yl}bicyclo[2.2.2]octan-1-yl)methyl]-3,5-difluoro-4-hydroxybenzamide]
17 | 13 | 180 | O=C(NC[C@]12CC[C@](c3nc(-c4ccc(C(F)(F)F)nn4)no3)(CC1)CC2)c1cc(F)c(O)c(F)c1 [Example 143, 3,5-difluoro-4-hydroxy-[(4-{3-[6-(trifluoromethyl)pyridazin-3-yl]-1,2,4-oxadiazol-5-yl}bicyclo[2.2.2]octan-1-yl)methyl]benzamide]
18 | 5.6 | 290 | Cn1nc(-c2noc([C@]34CC[C@](CNC(=O)c5cc(F)c(O)c(F)c5)(CC3)CC4)n2)ccc1=O [Example 146, 3,5-difluoro-4-hydroxy-N-({4-[3-(1-methyl-6-oxo-1,6-dihydro-pyridazin-3-yl)-1,2,4-oxadiazol-5-yl]bicyclo[2.2.2]octan-1-yl}methyl) benzamide]
19 | 17 | 430 | O=C(NC[C@H]1CC[C@H](n2cc3cc(C(F)(F)F)ncc3n2)CC1)c1cc(F)c(O)c(F)c1 [Example 147, 3,5-difluoro-4-hydroxy-N-({(1r,4r)-4-[5-(trifluoromethyl)-2H-pyrazolo[3,4-c]pyridin-2-yl]cyclohexyl}methyl) benzamide, ammonium salt]
20 | 8.2 | 170 | COc1cnc(-c2noc([C@]34CC[C@](CNC(=O)c5cc(F)c(O)c(F)c5F)(CC3)CC4)n2)cn1 [Example 151, 2,3,5-trifluoro-4-hydroxy-N-({4-[3-(5-methoxypyrazin-2-yl)-1,2,4-oxadiazol-5-yl]bicyclo[2.2.2]octan-1-yl}methyl) benzamide]
21 | 10 | 140 | COc1cnc(-c2noc([C@]34CC[C@](CNC(=O)c5cc(F)c(O)c(F)c5)(CC3)CC4)n2)cn1 [Example 152, 3,5-difluoro-4-hydroxy-N-({4-[3-(5-methoxypyrazin-2-yl)-1,2,4-oxadiazol-5-yl]bicyclo[2.2.2]octan-1-yl}methyl)benzamide]
22 | 17 | 370 | O=C(NC[C@]12CC[C@](c3nc(-c4cnc(C(F)(F)F)cn4)no3)(CC1)CC2)c1ccc(O)c(F)c1F [Example 177, 2,3-difluoro-4-hydroxy-N-[(4-{3-[5-(trifluoromethyl)pyrazin-2-yl]-1,2,4-oxadiazol-5-yl}bicyclo[2.2.2]octan-1-yl)methyl]benzamide]
23 | 7.9 | 150 | O=C(NC[C@]12CC[C@](c3nc(-c4cnc(C(F)(F)F)cn4)no3)(CC1)CC2)c1cc(F)c(O)c(F)c1F [Example 178, 2,3,5-trifluoro-4-hydroxy-N-[(4-{3-[5-(trifluoromethyl)pyrazin-2-yl]-1,2,4-oxadiazol-5-yl}bicyclo[2.2.2]octan-1-yl)methyl]benzamide]
24 | 16 | 150 | O=C(NC[C@]12CC[C@](c3nc(-c4cnc(C(F)(F)F)cn4)no3)(CC1)CC2)c1cc(F)c(O)cc1F [Example 179, 2,5-difluoro-4-hydroxy-N-[(4-{3-[5-(trifluoromethyl)pyrazin-2-yl]-1,2,4-oxadiazol-5-yl}bicyclo[2.2.2]octan-1-yl)methyl]benzamide]
25 | 11 | 470 | O=C(NC[C@]12CC[C@](c3nc(-c4ccc(C(F)(F)F)nn4)no3)(CC1)CC2)c1ccc(O)c(F)c1F [Example 180, 2,3-difluoro-4-hydroxy-N-[(4-{3-[6-(trifluoromethyl)pyridazin-3-yl]-1,2,4-oxadiazol-5-yl}bicyclo[2.2.2]octan-1-yl)methyl]benzamide]
26 | 10 | 450 | O=C(NC[C@H]1CC[C@H](n2cc3cc(C(F)(F)F)ccc3n2)CC1)c1cc(F)c(O)cc1F [Example 183, 2,5-difluoro-4-hydroxy-N-({(1r,4r)-4-[5-(trifluoromethyl)-2H-indazol-2-yl]cyclohexyl}methyl)benzamide]
27 | 5.5 | 220 | O=C(NC[C@]12CC[C@](c3nc(-c4ccc(C(F)(F)F)nn4)no3)(CC1)CC2)c1cc(F)c(O)c(F)c1F [Example 184, 2,3,5-trifluoro-4-hydroxy-N-[(4-{3-[6-(trifluoromethyl)pyridazin-3-yl]-1,2,4-oxadiazol-5-yl}bicyclo[2.2.2]octan-1-yl)methyl]benzamide]
